Primed or numbered codes have the meaning given here. Where no end group is shown, it is not given here. The star is where a group is joined. DOTA = O=C(O)CN1CCN(CC(=O)O)CCN(CC(=O)*)CCN(CC(=O)O)CC1; FITC′ = fluorescent dye, fluorescein isothiocyanate
Experiments:
MMP-2 = molecular target: T1, MMP-2 (Homo sapiens, UniProt P08253); test: Cleavage test with MMP-2, cleavage products examined by HPLC; type: biochemical
T1 construct: purchased Calbiochem
T1 sequence (P08253 110-660): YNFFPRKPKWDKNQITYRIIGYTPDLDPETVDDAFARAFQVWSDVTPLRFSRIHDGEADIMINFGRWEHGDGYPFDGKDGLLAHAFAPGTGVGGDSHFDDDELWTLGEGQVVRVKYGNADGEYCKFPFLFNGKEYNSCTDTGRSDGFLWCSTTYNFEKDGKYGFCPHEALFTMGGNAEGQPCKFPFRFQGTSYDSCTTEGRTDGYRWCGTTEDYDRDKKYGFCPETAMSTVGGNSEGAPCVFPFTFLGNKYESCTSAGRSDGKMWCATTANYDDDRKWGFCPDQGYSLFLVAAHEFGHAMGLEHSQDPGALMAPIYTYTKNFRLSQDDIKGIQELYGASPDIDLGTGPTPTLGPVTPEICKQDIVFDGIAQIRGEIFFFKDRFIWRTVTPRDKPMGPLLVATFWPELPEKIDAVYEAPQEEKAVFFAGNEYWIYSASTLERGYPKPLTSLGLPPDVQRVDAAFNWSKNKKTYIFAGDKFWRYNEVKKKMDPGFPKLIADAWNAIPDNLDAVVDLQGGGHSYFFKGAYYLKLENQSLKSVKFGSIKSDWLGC
Experimental: The incubation in HEPES buffer with active MMP-2 was made for 2 hours.
[…]. For this 1% APMA stock solution (100 mM in DMSO) was added to the solution containing the MMP-2 proenzyme and the compounds (final APMA concentration: 1 mM, with 1% DMSO).
In the following also an incubation of 2 hours was performed. In addition the tests were made with the MMP-2 inhibitor I (Calbiochem). All six compounds were, as a control, also incubated into HEPES buffer without MMP-2 for two hours.

LN18 glioma cells = test: FACS analysis of fluorescence-stained cells; type: cell-based, human; settings: depending on the concentration; FIG. 5
Experimental: (§1) The FACS analysis was performed on a Becton-Dickinson FACSCalibur. [[…] of the cell suspension (1×10^6 cells+[…] FACS buffer (DPBS buffer with 1% paraformaldehyde)]. Approximately 25.000 to 35.000 cells were measured per sample [fluorescence excitation: argon-ion laser (480 nm), fluorescence detection: 540 to 565 nm band-path filter]. The tests were repeated two times.

[1] = test system: U373 and LN18 glioma cells; test: Magnetic resonance relaxometry on glioma cell centrifugates; type: cell-based, human
Experimental: Human U373 and LN18 glioma cells were grown in 25 cm^2 culture flasks (70% confluence). Accutase™ (PAA laboratories, Pasching, Austria) was added to strip off the cells from the bottom of the culture flasks.
In a first try the cells were collected and subsequently distributed on 16 Eppendorf-vials (6×10^6 cells per vial). The cells in the first four vials were used as a control (only RPMI medium with and also without APMA, two cell lines). […] In the following it was washed for three times with PBS and centrifuged with 800 rpm (rounds per minute) for 5 minutes.
In another test adherent U373 and LN18 glioma cells were incubated with the compounds 2A, 4A and […], and were stripped off in the following and collected in Eppendorf vials for the MRT. The MRT analysis of the Eppendorf vials with the cell centrifugates were performed in a 3 Tesla full body MRT apparatus (Trio, Siemens Magnetom Sonata, circular polarised knee coil).
The following spin echo sequence was used to obtain sagittal T1-weighted MRT images.
[…] TE (echo time): 7.4 ms, flip angle 90°, averages: 1, concatenations: 2, measurements: 2, number of slices: 19, distance factor: 30%, slice thickness: 3 mm, field of view read: 180 mm, field of view phase: 100%, base resolution: 256, phase resolution: 100%, voxel size: 0.7×0.7×3.0 mm, scan time: 1:48 min.
By means of multiple spin echo measurements (TR: 20-8000 ms, 50 different TR values) different signal intensities were measured through which the T1 relaxation time could be determined.
TR: 20-8000 ms (50 different TR values), TE: 6.4 ms, flip angle 90°, averages: 1, measurements; 1, number of slices: 1, slice thickness: 1 mm, field of view read: 120 mm, field of view phase: 87.5, base resolution 128, phase resolution; 100% voxel size: 0.9×0.9×1 mm.
For the analysis and calculations a Matlab programme (Math Works, Natick, Mass., USA) was used. The T1 values were determined via a two-parameter fit. All signal curves were examined and rated as being mono-exponential. All tests were performed three times.

[2] = test system: LN18 and U373 glioma cells; test: Confocal laser scanning microscopy (CLSM) and FACS, staining of cell nuclei; type: cell-based, human; settings: 130 μM, APMA-containing medium, MMP-2 inactive/inhibited
Experimental: as §1

[3] = test system: intra-cerebral LN18 brain tumors; test: In vivo magnetic resonance tomography of nude mice with implanted glioma
Experimental: Female nude mice CD1(Nu/Nu) were obtained from Charles River (Sulzfeld, Germany) (weight: 25 g; age: 7 weeks). Human LN18 glioma cells were grown and implanted into the brain as described by Friese et al. (2003), MICA/NKG2D-mediated Immunogene Therapy of Experimental Gliomas, Cancer Res. 63(24): 8996-9006. The tests were performed 3 weeks after the implantation.
3.6 mg of the compound 4A were dissolved in 1 ml isotonic saline solution and intraperitoneally injected into 2 mice. Further, 3.6 mg of compound 4A were dissolved in 1 ml isotonic saline solution together with 0.5 mg MMP-2 inhibitor I, and in intraperitoneally injected into 2 mice. A mouse was used as control which were injected with 1 ml pure saline solution. Narcosis was performed with ketamine (100 mg/kg) and xylazine (10 mg/kg) intraperitoneally.
MRT was performed with a 3 Tesla full body apparatus (Trio. Siemens).
The mice were placed face down in a wrist array coil.
The MRT protocol consisted of the following sequences:
Tse 3D sequence: slice thickness 0.3125 mm, field of view read 63 mm, field of view phase 100.0%, base resolution 256, phase resolution 100%, slice resolution 100%, voxel seize 0.2×0.2×0.3 mm, slab group 1, slabs 1, slices per slab 16, TR 300 ms, TE 15 ms, flip angle 70, distance factor 50, scan time 12:02 min.
T1 weighted transverse images: slice thickness 2 mm, field of view read 31 mm, field of view phase 82.3%, voxel seize 0.2×0.2×2 mm, TR 600 ms, TE 18 ms, flip angle 180, number of slices 12, distance factor 0, scan time 11:35 min.

[4] = test system: LN18 and U373 glioma cells; settings: 130 μM; APMA-containing medium without inhibitor
Experimental: Human malignant glioma cells (U373 and LN18) were seated into 25 cm^2 culture flasks which contained 3 ml RPMI medium. This was left as it is for one day so that enough matrix metalloprotenases (MMP-2) could accumulate.
In a second test the same compounds were again dissolved in the media of 12 flasks (130 μM), however now with MMP-2 inhibitor I (Calbiochem).
As a control four small flasks were used wherein both cell lines were incubated in a one day old medium with and also without APMA.
For the confocal laser scanning microscopy an inverted LSM510 laser scanning microscope (Karl Zeiss, Jena, Deutschland) (Objectives: LD Achroplan 40×0.6, Plan Neofluar 20×0.50, 40×0.75) was used [fluorescence excitation at 488 nm (argon-ion laser) and […] (helium-neon laser)]. Superimposed images of FITC- and alexa-stained cells were produced. All measurements were performed on living, non-fixed cells for three times.

Substance: K-(GdDOTA)-G-PLGLA-GG-PKKKRKVRRRR-K(FITC)-GG-K(GdDOTA) (K(DOTA)GPLGLAGGPKKKRKVRRRRK(FITC′)GGK(DOTA)-NH2; also: DOTA groups complexed with Gd (GdDOTA)) [V4A]
- cleavage of the compound by MMP-2 (HPLC) (MMP-2; already active MMP-2 or proform of MMP-2 activated by APMA, 2 hours in HEPES buffer): cleaved
- cleavage of the compound by MMP-2 in presence of the inhibitor (HPLC) (MMP-2; with MMP-2 inhibitor I): prevented
- fluorescence after cleavage by MMP-2 in comparison to the components 2 and 2A (LN18 glioma cells): stronger fluorescence
- shortening of the T1 time in comparison to the native control, inhibitor-containing medium ([1]; 26 and 130 μM, with MMP-2 inhibitor): minor shortening of the T1 time
- signal intensity at TR: 400 ms, active MMP-2 versus inactive MMP-2 ([1]; LN18 glioma cell centrifugates, 26 and 130 μm, washed and centrifuged three times): considerably higher signal intensity
- shortening of the T1 time in comparison to component 2A, inhibitor-free medium ([1]; depending on the concentration): stronger shortening of the T1 time
- shortening of the T1 time, inhibitor-free medium ([1]; without MMP-2 inhibitor): more distinct shortening of the T1 time
- staining of the cell nuclei, MMP-2 inactive [2]: few stained cell nuclei
- intensity of the signal in the tumor in comparison to the native image ([3]; 30 minutes after intraperitoneal administration, FIG. 8): considerably decreases
- signal intensity in the brain tumors in MR tomography ([3]; intraperitoneal administration, nude mice with intra-cerebral LN18 brain tumors): distinct increase of the signal intensity
- signal intensity in the brain tumors, administered in the presence of an MMP-2 inhibitor ([3]; intraperitoneal, with MMP-2 inhibitor, remained only for a short time): very minor increase of the signal intensity
- signal intensity in the brain tumors one day after the administration ([3]; intraperitoneal, one day after administration): attenuated form
- apoptosis (binding of Alexa annexin to phosphatidyl serine; morphologic alterations), MMP-2 active [4]: apoptotic

Reference: patent US20100267928A1, “ACTIVATABLE DIAGNOSTIC AND THERAPEUTIC COMPOUND” (priority 2007, published 2010)
